Laboratory results from patent publication US7030125B2, “Isothiazole and isoxazole compounds as transforming growth factor (TGF) inhibitors” (Pfizer, Inc., priority 2002, dated 2006).

Molecular target: T1, ALK-5 (TβRI) (Homo sapiens, UniProt P36897)
T1 construct: using either the kinase domain of ALK5 with Smad3 as substrate; GST
T1 sequence (P36897 205-495 limits assumed): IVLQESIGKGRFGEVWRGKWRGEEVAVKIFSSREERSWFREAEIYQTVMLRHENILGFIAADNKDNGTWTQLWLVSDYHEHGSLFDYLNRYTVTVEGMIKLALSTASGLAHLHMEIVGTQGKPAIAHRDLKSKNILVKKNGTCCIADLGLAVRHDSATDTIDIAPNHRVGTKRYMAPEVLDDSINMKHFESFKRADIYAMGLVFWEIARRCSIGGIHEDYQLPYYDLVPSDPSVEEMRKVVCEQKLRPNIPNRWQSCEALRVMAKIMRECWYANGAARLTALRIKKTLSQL
Assay: ALK-5 (TβRI) Kinase Assay
Format: biochemical
Settings: GST-ALK5 with GST-Smad3 as substrate; read-out: TβRIIC50 value
Description: The kinase assays were performed with 65 nM GST-ALK5 and 84 nM GST-Smad3 in 50 mM HEPES, 5 mM MgCl2, 1 mM CaCl2, 1 mM dithiothreitol, and 3_M ATP. Reactions were incubated with 0.5_Ci of [33 P]_ATP for 3 h at 30° C. Phosphorylated protein was captured on P-81 paper (Whatman, Maidstone, England), washed with 0.5% phosphoric acid, and counted by liquid scintillation. Alternatively, Smad3 or Smad1 protein was also coated onto FlashPlate Sterile Basic Microplates (PerkinElmer Life Sciences, Boston, Mass.). Kinase assays were then performed in Flash-Plates with same assay conditions using either the kinase domain of ALK5 with Smad3 as substrate or the kinase domain of ALK6 (BMP receptor) with Smad1 as substrate. Plates were washed three times with phosphate buffer and counted by TopCount (Packard Bio-science, Meriden, Conn.). (Laping, N.J. et al. Molecular Pharmacology 62:58–64 (2002)).

IC50: ~118 nM
SMILES: COc1ccc2nccc(-c3conc3-c3cccc(C)n3)c2c1 [Example 5, 6-Methoxy-4-[3-(6-methyl-pyridin-2-yl)-isoxazol-4-yl]-quinoline]
